Our source for the Ki values is patent US8486931B2, “Substituted oxindole compounds” (Abbott GmbH & Co. KG, priority 2007, dated 2013).

SMILES strings stand for the structures. Counter-ions that a name gives are not always drawn.

This assay concerns the target T1, human vasopressin V1b receptor (Homo sapiens, UniProt P47901).
T1 construct: expressed in transfected cells; host or cells: CHO-K1 (cell line hV1b-3H2_CHO), membrane preparation
T1 sequence (P47901 1-424): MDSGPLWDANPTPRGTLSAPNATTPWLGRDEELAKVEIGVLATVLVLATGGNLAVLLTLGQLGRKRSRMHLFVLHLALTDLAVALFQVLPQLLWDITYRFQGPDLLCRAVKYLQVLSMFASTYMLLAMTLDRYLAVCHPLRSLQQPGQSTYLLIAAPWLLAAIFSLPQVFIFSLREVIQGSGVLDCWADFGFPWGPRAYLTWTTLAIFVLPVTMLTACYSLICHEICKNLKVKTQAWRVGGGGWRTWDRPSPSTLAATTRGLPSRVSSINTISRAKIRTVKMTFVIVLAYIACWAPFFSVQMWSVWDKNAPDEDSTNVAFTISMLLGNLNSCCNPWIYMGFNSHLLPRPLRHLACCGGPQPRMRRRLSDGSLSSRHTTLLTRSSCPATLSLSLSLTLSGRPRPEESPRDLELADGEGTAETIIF
The assay is described as follows: Vasopressin V1b receptor binding assay. To be noted: membranes from CHO-K1 cells with stably expressed human V1b receptors, 1.5 nM 3H-AVP displacement; with more than one stereogenic center: the diastereomer with stronger affinity. The gist of the method:
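Membranes bearing human V1b receptor incubated 60 min at room temperature in 50 mM Tris, 10 mM MgCl2, 0.1% BSA, pH 7.4, 2% DMSO, triplicate.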
Take `CCOc1ccc(OC)cc1C1(N2CCN(c3ccncc3)CC2)C(=O)N(S(=O)(=O)c2ccc(OC)cn2)c2ccc(C#N)cc21` (single isomer, unassigned; (+)) [Example 163, (+)-5-Cyano-3-(2-ethoxy-5-methoxy-phenyl)-1-(5-methoxy-pyridine-2-sulfonyl)-3-(4-pyridin-4-yl-piperazin-1-yl)-2,3-dihydro-1H-indol-2-one]: the Ki (in general, a dissociation constant, usually derived from enzyme kinetics or from competition with a known ligand) is less than 10 nM. The same measure for `CCOc1c(OC)cccc1C1(N2CCN(c3ccnc(C(C)C)c3)CC2)C(=O)N(S(=O)(=O)c2ccc(OC)cn2)c2ccc(C#N)cc21` (racemic) [Example 173, (±)-5-Cyano-3-(2-ethoxy-3-methoxy-phenyl)-3-[4-(2-isopropyl-pyridin-4-yl)-piperazin-1-yl]-1-(5-methoxy-pyridine-2-sulfonyl)-2,3-dihydro-1H-indol-2-one]: less than 10 nM. The same measure for `CCOc1nc(Cl)ccc1C1(N2CCCN(c3ccncc3)CC2)C(=O)N(S(=O)(=O)c2ccc(OC)cn2)c2ccc(C#N)cc21` (racemic) [Example 168, (±)-5-Cyano-3-(6-chloro-2-ethoxy-pyridin-3-yl)-1-(5-methoxy-pyridine-2-sulfonyl)-3-(4-pyridin-4-yl-[1,4]diazepan-1-yl)-2,3-dihydro-1H-indol-2-one]: 10 to 50 nM.

On to `COc1ccc(C)cc1C1(N2CCN(c3ccncc3)CC2)C(=O)N(S(=O)(=O)c2cccc3cccnc23)c2ccc(C#N)cc21` (racemic) [Example 51, (±)-5-Cyano-3-(2-methoxy-5-methylphenyl)-3-(4-pyridin-4-ylpiperazin-1-yl)-1-quinoline-8-sulfonyl)-2,3-dihydro-1H-indol-2-one], for which the Ki is less than 10 nM. The same measure for `CCOc1nc(Cl)ccc1C1(N2CCN(c3ccncc3)CC2)C(=O)N(S(=O)(=O)c2ccc(OC)cc2OC)c2ccc(C#N)cc21` (racemic) [Example 29, (±)-5-Cyano-3-(6-chloro-2-ethoxypyridin-3-yl)-1-(2,4-dimethoxybenzenesulfonyl)-3-(4-pyridin-4-ylpiperazin-1-yl)-2,3-dihydro-1H-indol-2-one]: 10 to 50 nM. `CCOc1cc(OC)ccc1C1(N2CCC(N3CCNCC3)CC2)C(=O)N(S(=O)(=O)c2ccc(OC)cn2)c2ccc(C#N)cc21` (racemic) [Example 174, (±)-5-Cyano-3-(2-ethoxy-4-methoxy-phenyl)-1-(5-methoxy-pyridine-2-sulfonyl)-3-(4-piperazin-1-yl-piperidin-1-yl)-2,3-dihydro-1H-indol-2-one] gave a Ki of less than 10 nM. In turn, `CCOc1ccc(OC)cc1C1(N2CCN(c3ccncc3)CC2)C(=O)N(S(=O)(=O)c2ccc(OC)cn2)c2ccc(C#N)cc21` (racemic) [Example 82, (±)-5-Cyano-3-(2-ethoxy-5-methoxyphenyl)-1-(5-methoxypyridine-2-sulfonyl)-3-(4-pyridin-4-ylpiperazin-1-yl)-2,3-dihydro-1H-indol-2-one] displayed a Ki of less than 10 nM.

In turn, `CCOc1nc(Cl)ccc1C1(N2CCN(c3ccncc3)CC2)C(=O)N(S(=O)(=O)c2ccc(C)cn2)c2ccc(C#N)cc21` (racemic) [Example 23, (±)-5-Cyano-3-(6-chloro-2-ethoxypyridin-3-yl)-1-(5-methylpyridine-2-sulfonyl)-3-(4-pyridin-4-ylpiperazin-1-yl)-2,3-dihydro-1H-indol-2-one] displayed a Ki of 10 to 50 nM. The same measure for `COc1ccccc1C1(N2CCN(c3ccncc3)CC2)C(=O)N(S(=O)(=O)c2cccc3cccnc23)c2ccc(Cl)cc21` (racemic) [Example 37, (±)-5-Chloro-3-(2-methoxyphenyl)-3-(4-pyridin-4-ylpiperazin-1-yl)-1-(quinoline-8-sulfonyl)-1,3-dihydroindol-2-one]: less than 10 nM. Molecule `CCOc1ccc(OC)cc1C1(N2CCCN(c3ccnc(C)c3)CC2)C(=O)N(S(=O)(=O)c2ccc(OC)cn2)c2ccc(C#N)cc21` (racemic) [Example 65, (±)-5-Cyano-3-(2-ethoxy-5-methoxyphenyl)-1-(5-methoxypyridine-2-sulfonyl)-3-[4-(2-methylpyridin-4-yl)-[1,4]diazepan-1-yl]-2,3-dihydro-1H-indol-2-one] displayed a Ki of less than 10 nM.

In turn, `CCOc1ccc(OC)cc1C1(N2CCN(C3CCNCC3)CC2)C(=O)N(S(=O)(=O)c2ccc(OC)cn2)c2ccc(C#N)cc21` (single isomer, unassigned; (+)) [Example 140, (+)-5-Cyano-3-(2-ethoxy-5-methoxy-phenyl)-1-(5-methoxy-pyridine-2-sulfonyl)-3-(4-piperidin-4-yl-piperazin-1-yl)-2,3-dihydro-1H-indol-2-one] registered a Ki of less than 10 nM. The same measure for `CCOc1ccc(OC)cc1C1(N2CCN(c3ccnc(C)c3)CC2)C(=O)N(S(=O)(=O)c2cccc3cccnc23)c2ccc(C#N)cc21` (racemic) [Example 54, (±)-5-Cyano-3-(2-ethoxy-5-methoxyphenyl)-3-[4-(2-methylpyridin-4-yl)piperazin-1-yl]-1-(quinoline-8-sulfonyl)-2,3-dihydro-1H-indol-2-one]: less than 10 nM; for `CCOc1nc(Cl)ccc1C1(N2CC3CN(c4ccnc(C)c4)CC3C2)C(=O)N(S(=O)(=O)c2ccc(OC)cn2)c2ccc(C#N)cc21` (racemic) [Example 149, (±)-5-Cyano-3-(6-chloro-2-ethoxy-pyridin-3-yl)-1-(5-methoxy-pyridine-2-sulfonyl)-3-[5-(2-methyl-pyridin-4-yl)-hexahydro-pyrrolo[3,4-c]pyrrol-2-yl]-2,3-dihydro-1H-indol-2-one]: less than 10 nM. The result for `CCOc1ccc(OC)cc1C1(N2CCN(C3CCNCC3)CC2)C(=O)N(S(=O)(=O)c2ccc(OC)c3cccnc23)c2ccc(C#N)cc21` (racemic) [Example 69, (±)-5-Cyano-3-(2-ethoxy-5-methoxyphenyl)-1-(5-methoxyquinoline-8-sulfonyl)-3-(4-piperidin-4-ylpiperazin-1-yl)-2,3-dihydro-1H-indol-2-one hydrochloride] reads 10 to 50 nM; that for `COc1ccc(OC(C)C)c(C2(N3CCN(c4ccncc4)CC3)C(=O)N(S(=O)(=O)c3ccc(C)cn3)c3ccc(C#N)cc32)c1` (racemic) [Example 21, (±)-5-Cyano-3-(2-isopropoxy-5-methoxyphenyl)-1-(5-methylpyridine-2-sulfonyl)-3-(4-pyridin-4-ylpiperazin-1-yl)-2,3-dihydro-1H-indol-2-one], 10 to 50 nM. The result for `CCOc1cc(OC)ccc1C1(N2CCC(N3CCNCC3)CC2)C(=O)N(S(=O)(=O)c2ccc(OC)cn2)c2ccc(C#N)cc21` (single isomer, unassigned; (+)) [Example 142, (+)-5-Cyano-3-(2-ethoxy-4-methoxy-phenyl)-1-(5-methoxy-pyridine-2-sulfonyl)-3-(4-piperazin-1-yl-piperidin-1-yl)-2,3-dihydro-1H-indol-2-one] reads less than 10 nM.

Regarding `COc1ccccc1C1(N2CCN(c3ccncc3)CC2)C(=O)N(S(=O)(=O)c2cccc3cccnc23)c2cc(C)ccc21` (racemic) [Example 39, (±)-3-(2-Methoxyphenyl)-6-methyl-3-(4-pyridin-4-ylpiperazin-1-yl)-1-(quinoline-8-sulfonyl)-1,3-dihydroindol-2-one], the Ki was in the range of 10 to 50 nM.

Take `CCOc1ccccc1C1(N2CCN(c3ccncc3)CC2)C(=O)N(S(=O)(=O)c2cccc3c(CC)ccnc23)c2ccc(C#N)cc21` (racemic) [Example 84, (±)-5-Cyano-3-(2-ethoxyphenyl)-1-(4-ethylquinoline-8-sulfonyl)-3-(4-pyridin-4-yl-piperazin-1-yl)-2,3-dihydro-1H-indol-2-one]: the Ki was less than 10 nM. The same measure for `CCOc1ccc(OC)cc1C1(N2CCN(c3ccnc(C4CC4)c3)CC2)C(=O)N(S(=O)(=O)c2ccc(OC)c3cccnc23)c2ccc(C#N)cc21` (racemic) [Example 70, (±)-5-Cyano-3-[4-(2-cyclopropylpyridin-4-yl)piperazin-1-yl]-3-(2-ethoxy-5-methoxyphenyl)-1-(5-methoxyquinoline-8-sulfonyl)-2,3-dihydro-1H-indol-2-one]: less than 10 nM; for `CCOc1ccccc1C1(N2CCN(c3ccnc(C)c3)CC2)C(=O)N(S(=O)(=O)c2cccc3cccnc23)c2ccc(C#N)cc21` (racemic) [Example 44, (±)-5-Cyano-3-(2-ethoxyphenyl)-3-[4-(2-methylpyridin-4-yl)piperazin-1-yl]-1-(quinoline-8-sulfonyl)-2,3-dihydro-1H-indol-2-one]: 10 to 50 nM; for `CCOc1ccc(OC)cc1C1(N2CCCN(c3ccnc(C)c3)CC2)C(=O)N(S(=O)(=O)c2cccc3cccnc23)c2ccc(C#N)cc21` (racemic) [Example 62, (±)-5-Cyano-3-(2-ethoxy-5-methoxyphenyl)-3-[4-(2-methylpyridin-4-yl)-[1,4]diazepan-1-yl]-1-(quinoline-8-sulfonyl)-2,3-dihydro-1H-indol-2-one]: less than 10 nM. The result for `CCOc1ccccc1C1(N2CCN(c3ccncc3)CC2)C(=O)N(S(=O)(=O)c2cccc3cccnc23)c2ccc(C#N)cc21` (racemic) [Example 38, (±)-5-Cyano-3-(2-ethoxyphenyl)-3-(4-pyridin-4-ylpiperazin-1-yl)-1-(quinoline-8-sulfonyl)-2,3-dihydro-1H-indol-2-one] reads 10 to 50 nM; that for `CCOc1cc(F)ccc1C1(N2CCN(c3ccncc3)CC2)C(=O)N(S(=O)(=O)c2ccc(OC)cn2)c2ccc(C#N)cc21` (racemic) [Example 32, (±)-5-Cyano-3-(2-ethoxy-4-fluorophenyl)-1-(5-methoxypyridine-2-sulfonyl)-3-(4-pyridin-4-ylpiperazin-1-yl)-2,3-dihydro-1H-indol-2-one], less than 10 nM.
